Measured values published in paper PMC4199632, “Exploring the Anti-Cancer Activity of Novel Thiosemicarbazones Generated through the Combination of Retro-Fragments: Dissection of Critical Structure-Activity Relationships” (PLoS ONE, 2014).

Assays:
[1] = tested on: HCT116 p53+/+ colon cancer cells; experiment: Proliferation assay (MTS, 96 h); type: cell-based, human; settings: for IC50: Homo sapiens, HCT-116, 96 h incubation, MTS, mean ±SD (3 experiments); for Therapeutic index NHDF vs. HCT116 p53+/+: NHDF cell IC50 divided by HCT116 p53+/+ IC50
Procedure: (§1) The human cancer cell types (neuroepithelioma (SK-N-MC), colon cancer (HCT116 with wild-type p53 (p53^+/+)), Burkitt's lymphoma (Raji) and cervical carcinoma (HeLa)) cells and normal human dermal fibroblasts (NHDF) were obtained from the American Type Culture Collection (ATCC, Manassas, VA, USA). HCT116 null p53 (p53^−/−) cells were obtained from the Maria Sklodowska-Curie Memorial Cancer Center and Institute of Oncology, Poland.
(§2) The SK-N-MC cells were cultured in minimum essential medium (MEM; Life Technologies, Grand Island, New York, USA) containing 10% (v/v) fetal bovine serum (FBS; Life Technologies), 1 mM sodium pyruvate (Life Technologies), 1% (v/v) non-essential amino acids (Life Technologies), 2 mM L-glutamine (Life Technologies), 100 U/mL penicillin (Life Technologies), 100 µg/mL streptomycin (Life Technologies) and 0.28 µg/mL fungizone (Bristol Myers Squibb Pharmaceuticals, Montreal, Canada). The HCT116 and NHDF cells were grown in Dulbecco's modified Eagle's medium (DMEM; Sigma-Aldrich) supplemented with 12% (v/v) heat-inactivated FBS (HCT116; Life Technologies) or 15% (v/v) FBS (NHDF; Life Technologies), 100 µg/mL of gentamicin (Polfa Warszawa S.A., Warsaw, Poland), 100 µg/mL of streptomycin (Polfa) and 100 U/mL of penicillin (Polfa). The Raji and HeLa cells were cultured in Roswell Park Memorial Institute medium (RPMI-1640; Sigma-Aldrich) with the addition of 10% (v/v) heat-inactivated FBS (Life Technologies) and the supplements described for SK-N-MC cells above. All cell lines were cultured under standard conditions at 37°C in a humidified atmosphere at 5% CO2 and were subcultured every 3–4 days as required.
(§3) The cells were seeded in 96-well plates (SK-N-MC: 1.5×10^4 cells/well; HeLa: 5.0×10^3 cells/well; Raji: 3.0×10^3 cells/well; HCT116: 3.5×10^3 cells/well; NHDF: 3.0×10^3 cells/well) 24 h prior to the addition of the novel compounds. The assays were performed using a 72 h (SK-N-MC, Raji, HeLa) or 96 h (HCT 116, NHDF) incubation period with the agents at 37°C. […] Additionally, DFO and Dp44mT were included as positive controls in all experiments as their activity is well characterized, [42], [50].
(§4) Chelator stock solutions were prepared in DMSO and diluted in media so that the final [DMSO] <0.05%. The results were expressed as a percentage of the control and the resulting IC50 values were calculated using GraphPad Prism 5 (GraphPad Software, Inc., La Jolla, CA, USA). The IC50 was defined as the concentration necessary to reduce the absorbance to 50% of the untreated control. Each individual compound was tested in triplicate in a single experiment, with each experiment being repeated three times. After incubation of HCT 116 and NHDF cells with the tested compounds, 20 µL of the CellTiter 96 Aqueous One Solution - MTS (Promega, Madison, WI, USA) solution was added to each well (with 100 µL of DMEM without phenol red) and incubated for 1 h/37°C. The optical density of the samples was analyzed at 490 nm.

[2] = tested on: HCT116 p53−/− colon cancer cells; experiment: Proliferation assay (MTS, 96 h); type: cell-based, human; settings: for IC50: 96 h incubation, MTS, mean ±SD (3 experiments); for Therapeutic index NHDF vs. HCT116 p53−/−: NHDF cell IC50 divided by HCT116 p53−/− IC50
Procedure: as §1, §2, §3, §4

[3] = Ascorbate oxidation assay (iron complexes); type: biochemical; settings: iron complex, IBE 3; for Ascorbate oxidation (% of the control): FeIII 10 µM, ascorbate 100 µM
Procedure: The ability of the iron complexes of the novel ligands to mediate the oxidation of the physiological substrate, ascorbate, was examined using established methods, [18], [22], [52], [53]. Ascorbic acid (100 µM) was prepared immediately prior to each experiment and was incubated in the presence of Fe^III (10 µM; as FeCl3), the chelator (1–60 µM) and a 50-fold molar excess of citrate (500 µM). The absorbance at 265 nm was measured after 10 and 40 min and the difference in absorbance at these time points was calculated. The results of these experiments were expressed as iron-binding equivalents (IBE) due to the different denticity of the chelators examined. The chelators, Dp44mT, DFO and ethylenediaminetetraacetic acid (EDTA) were used as controls as the ability of their iron complexes to oxidize ascorbate has been extensively characterized, [15], [52], [53].
The ability of the iron complexes of the novel TSCs to catalyze the oxidation of the physiological substrate, ascorbate, was important to assess as redox cycling may play a critical role in their anti-proliferative activity, [15], [18], [52], [53]. Thus, the oxidation of ascorbate mediated by the iron complexes of series 1–6 were examined in comparison to the iron complexes of the control compounds, DFO, EDTA and Dp44mT, as the ability of the latter to oxidize ascorbate is well characterized, [15], [52], [53], [68]. The results were expressed as a percentage of the control (no chelator) at iron-binding equivalents (IBEs) of 0.1 (excess “free” iron), 1 (iron-chelator complexes with a fully filled coordination sphere), or 3 (excess free chelator), due to the different denticity of the chelators examined (Fig. 10).
Figure 10 Effect of the iron complexes of (A) series 1, (B) series 2, (C) series 3, (D) series 4, (E) series 5 and (F) series 6 chelators, relative to DFO, Dp44mT and EDTA, on ascorbate oxidation. Chelators at iron-binding equivalent (IBE) ratios of 0.1, 1, and 3 were incubated in the presence of Fe^III (10 µM) and ascorbate (100 µM). The UV-Vis absorbance at 265 nm was recorded after 10 and 40 min, and the difference between the time points was calculated. Results are mean ±SD (3 experiments).

[4] = tested on: HCT116 p53+/+, HCT116 p53−/−, Raji, HeLa, SK-N-MC and NHDF cells; experiment: Proliferation assay, ranges stated over several cell-types; type: cell-based, human; settings: for IC50: Homo sapiens, HCT-116, range over HCT116 p53+/+ and p53−/− cells and over the compounds named, read-out: IC50 range in HCT116 cells; for Therapeutic index, NHDF relative to HCT116 cells: range over HCT116 p53+/+ and p53−/− and over the compounds named
Procedure: as §1, §2, §3, §4
(§5) MTT (3-[4,5-dimethylthiazol-2-yl]-2,5-diphenyltetrazolium bromide) was used to evaluate the anti-proliferative effects of the chelators in SK-N-MC and Raji cells. Following incubation with the investigated compounds, 10 µL of MTT (5 mg/mL in PBS; Sigma-Aldrich) was added to each well. After a 2 h (SK-N-MC) or 4 h (Raji) incubation, the plates were centrifuged, and the cells were lysed with 100 µL of 10% SDS-50% isobutanol in 0.01 M HCl (SK-N-MC) or DMSO (Raji). The absorbance was measured at 570 nm. The anti-proliferative effects of these novel agents on HeLa cells were estimated using crystal violet staining (0.5% crystal violet solution for 10 min). Finally, the wells were rinsed with water and the cells were lysed with 2% SDS. The optical density of the samples was analyzed at 595 nm.

[5] = tested on: SK-N-MC neuroepithelioma cells; experiment: Proliferation assay (MTT, 72 h); type: cell-based; settings: Homo sapiens, 72 h incubation, mean ±SD (3 experiments)
Procedure: as §1, §2, §3, §4, §5

[6] = tested on: Raji Burkitt's lymphoma cells; experiment: Proliferation assay (MTT, 72 h); type: cell-based; settings: Homo sapiens, 72 h incubation, mean ±SD (3 experiments)
Procedure: as §1, §2, §3, §4, §5

[7] = tested on: normal human dermal fibroblast (NHDF) cells; experiment: Proliferation assay (MTS, 96 h), normal mortal cells; type: cell-based; settings: 96 h incubation, mean ±SD (3 experiments)
Procedure: as §1, §2, §3, §4

[8] = tested on: HeLa cervical carcinoma cells; experiment: Proliferation assay (crystal violet, 72 h); type: cell-based; settings: Homo sapiens, 72 h incubation, mean ±SD (3 experiments)
Procedure: as §1, §2, §3, §4, §5

SK-N-MC cells = experiment: Inhibition of cellular 59Fe uptake from 59Fe2-Tf; type: cell-based, human; settings: chelator 25 µM, 59Fe2-Tf 0.75 µM, 3 h/37°C
Procedure: The iron transport protein, Tf (Sigma-Aldrich), was labeled with ^59Fe (PerkinElmer Life and Analytical Sciences, Boston, MA) to form ^59Fe2-Tf using standard methods, [7]. Unbound ^59Fe was removed by passage through a Sephadex G25 column and was followed by exhaustive dialysis, [7].
The ability of the chelators to prevent the cellular uptake of ^59Fe from ^59Fe2-Tf was examined using standard methods, [14], [17], [18], [50]. A monolayer of SK-N-MC cells was incubated with medium containing ^59Fe2-Tf (0.75 µM) and the chelator (25 µM) for 3 h at 37°C. The medium was then removed and the cells were washed four times with ice-cold PBS. The cells were then incubated for 30 min at 4°C with the general protease, Pronase (1 mg/mL; Sigma-Aldrich), to remove membrane-bound ^59Fe. The cells were removed using a plastic spatula and centrifuged at 14,000 rpm/1 min to separate internalized from membrane-bound ^59Fe. The cell pellet was resuspended in 1 mL of PBS and the internalized ^59Fe was measured on a γ-scintillation counter. Internalized ^59Fe uptake was calculated as a percentage of the control (medium alone). Again, the novel ligands were compared to DFO and Dp44mT as their ability to inhibit cellular ^59Fe uptake has been extensively characterized using SK-N-MC cells, [14], [17], [18], [50].
Figure 8 Effect of (A) series 1, (B) series 2, (C) series 3, (D) series 4, (E) series 5 and (F) series 6 chelators, relative to the controls DFO and Dp44mT, on ^59Fe uptake from ^59Fe-transferrin by SK-N-MC cells. Cells were incubated for 3 h/37°C with ^59Fe-transferrin (0.75 µM) in the presence or absence of the chelators (25 µM). At the end of this incubation, cells were washed 4 times with ice-cold PBS. Internalization of ^59Fe was assessed by incubation for 30 min/4°C with the protease, Pronase (1 mg/mL). Cellular ^59Fe was then assessed using a γ-scintillation counter. Results are mean ±SD (3 experiments).

Row | Compound | IC50 [1] | Therapeutic index NHDF vs. HCT116 p53+/+ [1] | IC50 ([2]; Homo sapiens, HCT-116, 96 h) | Therapeutic index NHDF vs. HCT116 p53−/− [2] | Ascorbate oxidation (% of the control) [3] | IC50 [4] | Therapeutic index, NHDF relative to HCT116 cells [4] | IC50 [5] | IC50 [6] | IC50 ([7]; Homo sapiens, NHDF, 96 h) | IC50 [8] | Internalized 59Fe uptake from 59Fe2-Tf (% of the control) (SK-N-MC cells) | IC50 [7] | Ascorbate oxidation compared with controls [3] | IC50 [2] | Decrease in anti-proliferative efficacy, HCT116 p53+/+ vs HCT116 p53−/− ([4]; comparison of IC50 in HCT116 p53+/+ and p53−/− cells)
1 | S=C(NN=C(c1ccccn1)c1ccccn1)N1CCN(c2ccccc2)CC1 [1b] | 0.8 ± 0.1 nM | 2 | 0.8 ± 0.1 nM | 2 | 200–265% | 0.8 to 90 nM | 2 | 50 ± 10 nM | 0.3 ± 0.03 nM | 1.7 ± 0.7 nM | 570 ± 160 nM |  |  |  |  | 
2 | S=C(N/N=C/c1cnc2ccccc2n1)N1CCOCC1 [5c] | 2030 ± 1240 nM |  | 5840 ± 1650 nM |  |  |  |  | 2870 ± 1250 nM | 240 ± 40 nM | 11600 ± 1800 nM | 860 ± 90 nM | 3.6–11.5% |  |  |  | 
3 | S=C(NN=C(c1ccccn1)c1ccccn1)N1CCN(c2ccccn2)CC1 [1d, Z-N′-(di(pyridin-2-yl)methylene)-4-(pyridin-2-yl)piperazine-1-carbothiohydrazide] | 2 nM | 80 | 9 ± 1 nM | 18 | 200–265% | 2 to 17 nM | 18–2650 | 20 ± 10 nM | 1.3 ± 0.1 nM | 160 to 10600 nM | 30 ± 20 nM |  | 160 ± 40 nM |  |  | 
4 | Oc1cccc2ccc(/C=N/NC(=S)N3CCOCC3)nc12 [3c] | 4 ± 2 nM | 2650 | 17 ± 6 nM | 624 |  | 2 to 17 nM | 18–2650 | > 6250 nM | 20 ± 10 nM |  | 180 ± 70 nM |  |  |  |  | 
5 | S=C(N/N=C/c1cnc2ccccc2n1)N1CCN(c2cnccn2)CC1 [5e] | 5730 ± 750 nM |  | 8490 ± 3050 nM |  |  |  |  | 1980 ± 680 nM | 270 ± 10 nM | 15800 ± 5100 nM | 3770 ± 1710 nM |  |  | increased levels of ascorbate oxidation |  | 
6 | Oc1cccc2ccc(/C=N/NC(=S)N3CCN(c4cnccn4)CC3)nc12 [3e] | 50 ± 30 nM |  | 5000 nM |  |  |  |  | > 6250 nM | 40 ± 20 nM | 12100 ± 3600 nM | 2390 ± 20 nM |  |  |  | 5010 ± 2550 nM | 100 fold
7 | Oc1ccccc1/C=N/NC(=S)N1CCN(c2ccccn2)CC1 [6d] | 9700 ± 2500 nM |  | 10600 ± 1200 nM |  |  |  |  | 5420 ± 640 nM | 2600 ± 330 nM | 18400 ± 1900 nM | 16400 ± 4500 nM |  |  | decreased ascorbate oxidation relative to the control |  | 
